According to PubChem BioAssay (NCI):
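Step 1: Grow cells in 96-well plates. Step 2: Expose to compound for 48 hours at 5 concentrations. Step 3: Interpolate endpoints linearly; if unreached, use highest concentration. At the TGI there is no net growth.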

Key:
Assay in all cases: NCI tumour cell line growth inhibition, 48 h
786-0 renal = tested on: 786-0 renal
A549 NSCLC = tested on: A549 NSCLC
ACHN renal = tested on: ACHN renal
CAKI-1 renal = tested on: CAKI-1 renal
CCRF-CEM leukemia = tested on: CCRF-CEM leukemia
COLO 205 colon = tested on: COLO 205 colon
DLD-1 colon = tested on: DLD-1 colon
DMS 114 small cell lung = tested on: DMS 114 small cell lung
DMS 273 small cell lung = tested on: DMS 273 small cell lung
EKVX NSCLC = tested on: EKVX NSCLC
HCC-2998 colon = tested on: HCC-2998 colon
HCT-116 colon = tested on: HCT-116 colon
HCT-15 colon = tested on: HCT-15 colon
HL-60(TB) leukemia = tested on: HL-60(TB) leukemia
HOP-18 NSCLC = tested on: HOP-18 NSCLC
HOP-62 NSCLC = tested on: HOP-62 NSCLC
HOP-92 NSCLC = tested on: HOP-92 NSCLC
HT29 colon = tested on: HT29 colon
IGROV1 ovarian = tested on: IGROV1 ovarian
K-562 leukemia = tested on: K-562 leukemia
KM12 colon = tested on: KM12 colon
KM20L2 colon = tested on: KM20L2 colon
LOX IMVI melanoma = tested on: LOX IMVI melanoma
LXFL 529 NSCLC = tested on: LXFL 529 NSCLC
M14 melanoma = tested on: M14 melanoma
M19-MEL melanoma = tested on: M19-MEL melanoma
MALME-3M melanoma = tested on: MALME-3M melanoma
MOLT-4 leukemia = tested on: MOLT-4 leukemia
NCI-H23 lung = tested on: NCI-H23 lung
NCI-H460 lung = tested on: NCI-H460 lung
OVCAR-3 ovarian = tested on: OVCAR-3 ovarian
OVCAR-4 ovarian = tested on: OVCAR-4 ovarian
OVCAR-5 ovarian = tested on: OVCAR-5 ovarian
OVCAR-8 ovarian = tested on: OVCAR-8 ovarian
RPMI-8226 leukemia = tested on: RPMI-8226 leukemia
RXF 393 renal = tested on: RXF 393 renal
RXF-631 renal = tested on: RXF-631 renal
SF-268 CNS = tested on: SF-268 CNS
SF-295 CNS = tested on: SF-295 CNS
SF-539 CNS = tested on: SF-539 CNS
SK-MEL-2 melanoma = tested on: SK-MEL-2 melanoma
SK-MEL-28 melanoma = tested on: SK-MEL-28 melanoma
SK-MEL-5 melanoma = tested on: SK-MEL-5 melanoma
SK-OV-3 ovarian = tested on: SK-OV-3 ovarian
SN12C renal = tested on: SN12C renal
SNB-19 CNS = tested on: SNB-19 CNS
SNB-75 CNS = tested on: SNB-75 CNS
SNB-78 CNS = tested on: SNB-78 CNS
SR leukemia = tested on: SR leukemia
SW-620 colon = tested on: SW-620 colon
TK-10 renal = tested on: TK-10 renal
U251 CNS = tested on: U251 CNS
UACC-257 melanoma = tested on: UACC-257 melanoma
UACC-62 melanoma = tested on: UACC-62 melanoma
UO-31 renal = tested on: UO-31 renal
XF 498 CNS = tested on: XF 498 CNS
A498 renal = tested on: A498 renal
NCI-H226 lung = tested on: NCI-H226 lung
NCI-H522 lung = tested on: NCI-H522 lung

Q: What does the source list for `COc1ccc(/C=N/Nc2nc(-c3cc4oc(=O)n(C)c4cc3Cl)cs2)cc1OC`?
A: TGI (786-0 renal): > 100 µM; TGI (A549 NSCLC): 36.2 µM; TGI (ACHN renal): 62.3 µM; TGI (CAKI-1 renal): > 100 µM; TGI (CCRF-CEM leukemia): > 100 µM; TGI (COLO 205 colon): > 100 µM; TGI (DLD-1 colon): > 100 µM; TGI (DMS 114 small cell lung): 39 µM; TGI (DMS 273 small cell lung): > 100 µM; TGI (EKVX NSCLC): > 100 µM; TGI (HCC-2998 colon): > 100 µM; TGI (HCT-116 colon): > 100 µM; TGI (HCT-15 colon): 91.8 µM; TGI (HL-60(TB) leukemia): > 100 µM; TGI (HOP-18 NSCLC): > 100 µM; TGI (HOP-62 NSCLC): > 100 µM; TGI (HOP-92 NSCLC): 77.1 µM; TGI (HT29 colon): > 100 µM; TGI (IGROV1 ovarian): 51 µM; TGI (K-562 leukemia): > 100 µM; TGI (KM12 colon): > 100 µM; TGI (KM20L2 colon): > 100 µM; TGI (LOX IMVI melanoma): > 100 µM; TGI (LXFL 529 NSCLC): > 100 µM; TGI (M14 melanoma): > 100 µM; TGI (M19-MEL melanoma): > 100 µM; TGI (MALME-3M melanoma): > 100 µM; TGI (MOLT-4 leukemia): > 100 µM; TGI (NCI-H23 lung): > 100 µM; TGI (NCI-H460 lung): > 100 µM; TGI (OVCAR-3 ovarian): > 100 µM; TGI (OVCAR-4 ovarian): 31.9 µM; TGI (OVCAR-5 ovarian): > 100 µM; TGI (OVCAR-8 ovarian): > 100 µM; TGI (RPMI-8226 leukemia): > 100 µM; TGI (RXF 393 renal): 62.6 µM; TGI (RXF-631 renal): > 100 µM; TGI (SF-268 CNS): > 100 µM; TGI (SF-295 CNS): > 100 µM; TGI (SF-539 CNS): > 100 µM; TGI (SK-MEL-2 melanoma): > 100 µM; TGI (SK-MEL-28 melanoma): > 100 µM; TGI (SK-MEL-5 melanoma): 14.7 µM; TGI (SK-OV-3 ovarian): > 100 µM; TGI (SN12C renal): 88.5 µM; TGI (SNB-19 CNS): > 100 µM; TGI (SNB-75 CNS): 69.5 µM; TGI (SNB-78 CNS): > 100 µM; TGI (SR leukemia): > 100 µM; TGI (SW-620 colon): > 100 µM; TGI (TK-10 renal): > 100 µM; TGI (U251 CNS): > 100 µM; TGI (UACC-257 melanoma): > 100 µM; TGI (UACC-62 melanoma): > 100 µM; TGI (UO-31 renal): > 100 µM; TGI (XF 498 CNS): 88.5 µM

Q: For `C[n+]1[se]c2ccccc2c1Cl`, which TGI (786-0 renal) is on record?
A: > 59.2 µM

Q: And the TGI (A498 renal)?
A: > 100 µM

Q: And the TGI (A549 NSCLC)?
A: > 94 µM

Q: What about the TGI (ACHN renal) of the same molecule?
A: > 70.7 µM

Q: What about the TGI (CAKI-1 renal) of the same molecule?
A: > 56.2 µM

Q: And the TGI (CCRF-CEM leukemia)?
A: 21.5 µM

Q: And the TGI (COLO 205 colon)?
A: > 59.8 µM

Q: And the TGI (DLD-1 colon)?
A: > 59.7 µM

Q: And the TGI (DMS 114 small cell lung)?
A: > 70 µM

Q: What about the TGI (DMS 273 small cell lung) of the same molecule?
A: 41.5 µM

Q: What about the TGI (EKVX NSCLC) of the same molecule?
A: 52.1 µM

Q: And the TGI (HCC-2998 colon)?
A: > 81.9 µM

Q: What about the TGI (HCT-116 colon) of the same molecule?
A: 31 µM

Q: What about the TGI (HCT-15 colon) of the same molecule?
A: > 67.3 µM

Q: And the TGI (HL-60(TB) leukemia)?
A: 19.6 µM

Q: What about the TGI (HOP-18 NSCLC) of the same molecule?
A: 52.9 µM

Q: What about the TGI (HOP-62 NSCLC) of the same molecule?
A: > 58.8 µM

Q: What about the TGI (HOP-92 NSCLC) of the same molecule?
A: 20.2 µM

Q: And the TGI (HT29 colon)?
A: > 76.3 µM

Q: What about the TGI (IGROV1 ovarian) of the same molecule?
A: > 77.5 µM

Q: What about the TGI (K-562 leukemia) of the same molecule?
A: > 70.7 µM

Q: And the TGI (KM12 colon)?
A: > 56.7 µM

Q: What about the TGI (KM20L2 colon) of the same molecule?
A: > 75.7 µM

Q: And the TGI (LOX IMVI melanoma)?
A: 39.7 µM

Q: What about the TGI (LXFL 529 NSCLC) of the same molecule?
A: > 100 µM

Q: And the TGI (M14 melanoma)?
A: 27.8 µM

Q: What about the TGI (M19-MEL melanoma) of the same molecule?
A: 27.3 µM

Q: And the TGI (MALME-3M melanoma)?
A: > 56.9 µM

Q: And the TGI (MOLT-4 leukemia)?
A: > 63.6 µM

Q: And the TGI (NCI-H226 lung)?
A: > 71.1 µM

Q: What about the TGI (NCI-H23 lung) of the same molecule?
A: 45.8 µM

Q: And the TGI (NCI-H460 lung)?
A: > 100 µM

Q: What about the TGI (NCI-H522 lung) of the same molecule?
A: 42.7 µM

Q: And the TGI (OVCAR-3 ovarian)?
A: > 71.9 µM

Q: What about the TGI (OVCAR-4 ovarian) of the same molecule?
A: > 60 µM

Q: And the TGI (OVCAR-5 ovarian)?
A: > 79.9 µM

Q: What about the TGI (OVCAR-8 ovarian) of the same molecule?
A: > 84.7 µM

Q: And the TGI (RPMI-8226 leukemia)?
A: > 67 µM

Q: What about the TGI (RXF 393 renal) of the same molecule?
A: 50.4 µM

Q: And the TGI (RXF-631 renal)?
A: > 67.2 µM

Q: And the TGI (SF-268 CNS)?
A: 52.4 µM

Q: And the TGI (SF-295 CNS)?
A: 50.9 µM

Q: What about the TGI (SF-539 CNS) of the same molecule?
A: 37.1 µM

Q: And the TGI (SK-MEL-2 melanoma)?
A: 28.1 µM

Q: What about the TGI (SK-MEL-28 melanoma) of the same molecule?
A: > 54.7 µM

Q: And the TGI (SK-MEL-5 melanoma)?
A: 31.1 µM

Q: And the TGI (SK-OV-3 ovarian)?
A: > 100 µM

Q: What about the TGI (SN12C renal) of the same molecule?
A: 23.7 µM

Q: What about the TGI (SNB-19 CNS) of the same molecule?
A: > 100 µM

Q: And the TGI (SNB-75 CNS)?
A: 45.8 µM

Q: What about the TGI (SNB-78 CNS) of the same molecule?
A: > 72.8 µM

Q: What about the TGI (SW-620 colon) of the same molecule?
A: 42.6 µM

Q: What about the TGI (TK-10 renal) of the same molecule?
A: > 63 µM

Q: And the TGI (U251 CNS)?
A: > 74.4 µM

Q: What about the TGI (UACC-257 melanoma) of the same molecule?
A: > 46.9 µM

Q: And the TGI (UACC-62 melanoma)?
A: 33.2 µM

Q: And the TGI (UO-31 renal)?
A: > 63.5 µM

Q: And the TGI (XF 498 CNS)?
A: > 54.9 µM
